The values that follow come from paper PMC10242237 (Scientific Reports, 2023).

The test system of data set [1] is M^pro. The settings on record: in vitro FRET substrate assay, recombinant enzyme; cited from earlier work.
The conditions of data set [2]: phase I clinical trial, humans; cited from earlier work.
For data set [3], the target named is T1, SARS-CoV-2 PL^pro (Severe acute respiratory syndrome coronavirus 2, UniProt P0DTD1). Description: biochemical. The settings on record: for inhibition at 1 µM: 0.5 h, read-out: inhibition [%] SARS-CoV-2 PLpro.
Data set [4] concerns SARS-CoV-2. Description: Cytopathic effect (CPE)-based anti-SARS-CoV-2 assay in Vero E6 cells. Particulars: read-out: EC50 CPE, three days, XTT. In general terms: Protection from cytopathic effect is a common read-out in antiviral testing.
Data set [5] addresses T1, SARS-CoV-2 PL^pro. Particulars: Flip-GFP assay, 293T-ACE2 cells; cited from earlier work.
Data set [6] can be described thus: Cytotoxicity assay (XTT) in Vero E6 cells. The format is cell-based. Particulars: African green monkey. The protocol:
(§1) Cytotoxicity was evaluated by incubating two-fold serial dilutions of each compound with Vero E6 cells.

Data set [7] deals with SARS-CoV-2 nsp14 N7-MTase (Severe acute respiratory syndrome coronavirus 2, UniProt P0DTD1). In words: Py-FLINT fluorescence assay of nsp14 N7-MTase. Type of data set: biochemical. Particulars: for SARS-CoV-2 nsp14 Hill coefficient p: four-parameter dose-response fit, variable Hill slope.
Procedure: To determine their IC50 values, we used the previously described fluorescence assay Py-FLINT[42],[67]. To this end, the Py-FLINT probe (1 μM) was incubated with SAM cosubstrate (20 μM), nsp14 enzyme (40 nM), and half-log inhibitor dilutions in 50 mM Tris–HCl pH 7.5 buffer at 30 °C. The reaction progress was monitored in 96-well cells by registering the fluorescence intensity signal with a 1-min time interval. Using the initial reaction course, the values of initial rates V were calculated. To calculate IC50 values from the obtained dependences of initial rates versus inhibitor concentration, we fitted a four-parameter dose–response equation, assuming a variable Hill slope p (Table 3, Fig. S2).
The Py-FLINT probe (1 μM) was incubated with SAM cosubstrate (20 μM), nsp14 (40 nM), and an inhibitor (half-log dilutions logCinh < − 2.5; 2 >). […] Initial rates V were calculated by fitting a linear curve to the first 10 points (10 min). To the obtained dependences V(Cinh) the following four-parameter dose–response equation was fitted:1 V/V0=A1+A2-A1/1+Cinh/IC50^p, where A1 and A2 are the bottom and top asymptotes, respectively; Cinh the inhibitor concentration; p is the Hill coefficient, and V/V0 is the ratio of the initial reaction rate with the inhibitor to that without the inhibitor. For curve fitting and IC50 calculations we used GraphPad Prism software.
The subject of data set [8] is M^pro. Particulars: Protease-Glo luciferase and Flip-GFP assays; cited from earlier work.
Data set [9] addresses SARS-CoV-2 M^pro (Severe acute respiratory syndrome coronavirus 2, UniProt P0DTD1). Description: biochemical. Particulars: for inhibition at 0.1 µM: read-out: inhibition [%] SARS-CoV-2 Mpro, [I] = 100 nM; for inhibition at 1 µM: read-out: inhibition [%] SARS-CoV-2 Mpro, [I] = 1 µM.
Data set [10] concerns SARS-CoV-2. In words: RNA reduction-based anti-SARS-CoV-2 assay (RT-qPCR) in Vero E6 cells. Particulars: read-out: EC50 RNA, two days, RT-qPCR of medium.
For data set [11], the system named is A549 human cell line. Particulars: cited from earlier work.
The test system of data set [12] is Vero E6 cells. Description: Cytotoxicity assay (XTT) in Vero E6 cells. The format is cell-based. The settings on record: Vero E6 cells, three days, XTT. The protocol:
as §1
A general note: Formazan colour is commonly taken as a measure of viable cells.

[13] abbreviates: [E] = 100 nM, [I] = 1 µM, [S] = 10 µM.

Read-outs that look alike come from different tables or passages of the source. Some results are limits rather than exact numbers.

By inhibition is commonly meant the relative decrease from the control value, in per cent. What is called EC50 is the concentration that produces a half-maximal response. For orientation: CC50 means the concentration giving 50% cytotoxicity. With `O=c1c2ccccc2[se]n1-c1ccccc1` [Ebselen, 2-phenylbenzisoselenazol-3(2H)-one, reference compound], the “M^pro inhibition in presence of reducing agent” value in data set [1] is listed as “does not inhibit”. Also, the tolerated single dose in data set [2] is given as 1600 mg. Moreover, the inhibition at 1 µM in [3] (setting [13]) was found to be 65.4 ± 2.4%; in [9], 100%. The EC50 in data set [4] worked out at 34 ± 7.9 µM. Also, the “SARS-CoV-2 PL^pro inhibition in cells” value in data set [5] is on record as “no SARS-CoV-2 PL^pro inhibition”. The CC50 at 3 days in [6] is about 30 µM. In addition, the “SARS-CoV-2 nsp14 Hill coefficient p” value in data set [7] is listed as 2.74 ± 0.47. Besides, the “M^pro inhibition in cells” value in data set [8] is “no M^pro inhibition”. Moreover, the inhibition at 0.1 µM in data set [9] ([E] = 100 nM, [I] = 100 nM, [S] = 50 µM) worked out at 57.6 ± 1.3%.
For orientation: melting point means the temperature of the solid-liquid transition. Regarding `Cc1c(Cl)cccc1-n1[se]c2ccccc2c1=O` [Compound 21], the melting point is 282 to 283 °C. In data set [3], the inhibition at 1 µM was 58.3 ± 2.4%. Besides, the inhibition at 0.1 µM in data set [9] came to 70.6 ± 1.4%.
Turning to `CCC(CC)COC(=O)[C@H](C)N[P@](=O)(OC[C@H]1O[C@@](C#N)(c2ccc3c(N)ncnn23)[C@H](O)[C@@H]1O)Oc1ccccc1` [Remdesivir, reference compound], the EC50 in data set [4] was found to be 0.1 ± 0.01 µM; in [10], 0.66 ± 0.06 µM. In addition, the CC50 at 3 days in data set [6] (Vero E6 cells, three days, XTT, read-out: CC50) is over 50 µM.
`COc1ccc(-n2[se]c3ccccc3c2=O)c(OC)c1` [Compound 16] displayed a melting point of 238 to 240 °C. Further, the inhibition at 1 µM in [3] worked out at 64.3 ± 3.8%. Also, the “toxicity in A549 cells, times lower in comparison with ebselen” value in data set [11] was 10 times. The “SARS-CoV-2 nsp14 Hill coefficient p” value in data set [7] is listed as 2.36 ± 0.32. The inhibition at 0.1 µM in data set [9] turned out to be 59 ± 1.5%.
Turning to `O=c1c2ccccc2[se]n1-c1ncccc1O` [Compound 7, 2-(3-hydroxypyridin-2-yl)-1,2-benzisoselenazol-3(2H)-one], the melting point is 228 to 229 °C (dec.). Moreover, the inhibition at 1 µM in data set [3] is 84.4 ± 2.1%. Further, the “SARS-CoV-2 nsp14 Hill coefficient p” value in data set [7] stood at 4.08 ± 1.33. The inhibition at 0.1 µM in data set [9] came to 55.9 ± 4.1%.
`O=c1c2ccccc2[se]n1-c1ccc(I)cc1` [Compound 11]: the melting point was 203 to 204 °C. Besides, the inhibition at 1 µM in data set [3] was 48 ± 2.1%. Moreover, the inhibition at 0.1 µM in data set [9] is 71.6 ± 5.6%.
By IC50 is commonly meant the point on the concentration scale where inhibition reaches its midpoint. For the molecule `COc1ccc(NC(=O)c2ccccc2[Se][Se]c2ccccc2C(=O)Nc2ccc(OC)cc2OC)c(OC)c1` [Compound 31], in [3] (setting [13]), the “inhibition [%] SARS-CoV-2 PLpro” value worked out at 76.6 ± 2.4%. Besides, the EC50 in [4] turned out to be 7.1 ± 0.84 µM. In data set [10], the EC50 amounted to 2.8 ± 0.31 µM. In [12], the CC50 was over 50 µM. Moreover, the IC50 in data set [7] was determined as 0.91 ± 0.1 µM. Also, in data set [9], the inhibition at 0.1 µM was determined as 50 ± 1% and the inhibition at 1 µM came to 100%.
